# Test results reported in patent US9631050B2, “Antimicrobial cationic polycarbonates” (International Business Machines Corporation, priority 2013, dated 2017).
# Test system: mammalian red blood cells
# Protocol: HC50 is defined as the concentration (in mg/L) of cationic polymer that causes 50% of mammalian red blood cells to undergo hemolysis. HC50 values of 500 mg/L or higher are desirable.
# Fresh rabbit blood cells or rat blood cells were subjected to 25× dilution with phosphate buffered saline (PBS) to obtain an approximate 4% v/v suspension for use in this experiment. Red blood cell suspension (300 microliters) was added to each tube containing an equal volume (300 microliters) of polymer solution in PBS (with final polymer concentrations ranging from 3.9-500 mg/L). The tubes were then incubated at 37° C. for 1 hour before they were centrifuged at 1000×g for 5 min. Aliquots (100 microliters) of supernatant were transferred to each well of a 96-well plate and analyzed for hemoglobin release at 576 nm using a microplate reader (TECAN, Switzerland). Red blood cells suspension incubated with PBS was used as negative control. Absorbance of red blood cells lyzed with 0.1% v/v Triton X-100 was used as the positive control and taken to be 100% hemolytic. Percentage of hemolysis was calculated using the following formula: Hemolysis (%)=[(O.D.576 nm of treated sample−O.D.576 nm of negative control)/(O.D.576 nm of positive control−O.D.576 nm of negative control)]×100. Data are expressed as mean±standard deviations of 4 replicates.
substance,measurement,value
Butyl imidazole [Example 36],HC50,250 mg/L
